Experimental findings from patent US11325982B2, “Biparatopic and multiparatopic antibodies with common light chain and method of use” (XUANZHU BIOPHARMACEUTICAL CO., LTD., priority 2017, dated 2022) are described below.

In the test the test system is NCI-N87 cells. In words: Inhibition of proliferation of NCI-N87 cells (CCK-8). Format: cell-based. The following applies: 72 hours, FIG. 14.
Experimental: The growth curve of NCI-N87 was initially determined by plating cells at various densities in 96-well tissue culture plates. Cells were gown in RPMI-1640 medium supplemented with 10% fetal bovine serum (FBS).
24 hours later, 10 μl of antibody construct diluted to various concentrations with the medium were added to the cell culture. After the cells were cultured for additional 72 hours, the cell proliferation rates were determined by adding 10 μl of CCK-8 reagent (Sigma). After 3 hour of incubation without light, the plates were read at OD450 nm. The wells without addition of antibody were set as 100% cell viability and Docetaxel was used as a positive control for cytotoxicity. The data were then fitted into 4-parameter sigmoidal curve to generate IC50. The samples were done in triplicate.
On to “T51: Biparatopic Fab-Ig: Bip_mAb_HC11 (VH_Pert_T30A; VH_Tra_N54T/D98S) with Tra_LC_N30S_S56Y; Fc M428L”, for which the growth inhibition result is given as “inhibited growth” and the “growth inhibition effect compared with other antibodies” value is “had greater effect than pertuzumab (mAb T1) or trastuzumab (mAb T22)”.

In the case of “T52: Biparatopic Fab-Ig: Bip_mAb_HC12 (VH_Pert_T30A/G56A; VH_Tra_N54T/D98S) with Tra_LC_N30S_S56Y”, the growth inhibition entry is “inhibited growth” and the “growth inhibition effect compared with other antibodies” value is listed as “had greater effect than pertuzumab (mAb T1) or trastuzumab (mAb T22)”.

For the substance “T54: Biparatopic knob/hole heterodimer: HC14 (pert T30A) and HC15 (Tra N54T/D98S) with Tra_LC_N30S_S56Y”, the growth inhibition entry was “inhibited growth” and the “growth inhibition effect compared with other antibodies” value was “had greater effect than pertuzumab (mAb T1) or trastuzumab (mAb T22)”.

As for pertuzumab [T1, reference compound], the growth inhibition entry is “minimal effect” and the “growth inhibition effect compared with other antibodies” value is reported as “somewhat greater effect”.
